According to publication PMC7106487, “Design, Synthesis and Discovery of N,N’‐Carbazoyl‐aryl‐urea Inhibitors of Zika NS5 Methyltransferase and Virus Replication” (Chemmedchem, 2020):
Read-outs that look alike come from different tables or passages of the source.

What was measured:
[1] = test system: host cell; test: in vitro; type: cell-based
Description: (§1) Finally, the ability of all the derivatives synthesized in this work to inhibit ZIKV replication was assessed. […]

[2] = in vitro; type: cell-based; conditions: ZIKV CC50
Description: as §1

[3] = molecular target: T1, ZIKV NS5-MTase (Zika virus, UniProt Q32ZE1); test: MTase inhibition assay ([3H]-SAM, GpppAC4 RNA substrate, DEAE filter binding); type: biochemical; conditions: for inhibition at 50 µM / inhibition of ZIKV NS5-MTase: initial screen, compounds at 50 μM, 30 min at 30 °C
T1 construct: made in house
Description: (§2) The library of compounds 9, 11, 12, 14, 15, 16 and 21 was then assessed on different purified recombinant MTases. All compounds were initially screened at 50 μM against ZIKV NS5‐MTase and hRNMT as well as against DENV NS5‐MTase due to its similarity with ZIKV protein. The SAM mimetic sinefungin was included as control.
(§3) The MTases were incubated with radiolabeled [^3H]‐SAM together with the GpppAC4 RNA substrate and the different compounds at 50 μM. The reaction was stopped after 30 mins at 30 °C. The sample products were filtered on a DEAE membrane to remove non‐incorporated [^3H]‐SAM, and radioactivity transferred on the RNA substrate was counted. […]
(§4) DENV, ZIKV and hRNMT MTase production and purification
(§5) The coding sequence of the ZIKV MTase domain was cloned in pDest 14 (Invitrogen) expression vector as recently described,9 and the DENV and ZIKV MTase were produced and purified following the protocols applied for the DENV MTase.10 The human N7-MTase (hRNMT) was cloned in pDest 14 (Invitrogen) expression vector as described.11 The hRNMT was produced in e.coli Rosetta (DE3) cells transformed with pDest14/6His -hRNMT and purified on immobilized-metal-affinity chromatography (IMAC, Amersham Biosciences) followed by hearine, as described previously.11
(§6) The MTase activity of the different recombinant proteins was assayed upon pre -incubation of the MTase (5 min) with a selected fragment and the reactions were started by addition of a […]
(§7) small capped RNA substrate GpppAC4 with the [3H]AdoMet.12 The MTase activity assay was performed in 20 µl samples containing 40 mM Tris-HCl pH 7.5, 5 mM DTT (except for hRNMT), 10 µM AdoMet (0.2-2 µCi [3H]SAM), 1 µM of DENV or ZIKV MTase or 200 nM of hRNMT, 1 µM GpppAC4 in presence of 1µl of compounds solubilized in DMSO 100%.
(§8) Reactions were incubated at 30°C for 30 min and stopped by 20-fold dilution in an ice-cold 100 µM AdoHcy (SAH) solution. Samples were then transferred onto a DEAE membrane (DEAE Filtermat; Wallac) by using a Filtermat Harvester (Packard Instruments) washed with 0.01 M ammonium formate (pH 8.0), water and 95 % ethanol, and the radioactivity transferred onto RNA was measured using a Wallac 1450 MicroBeta Trilux Liquid Scintillation Counter.
(§9) The inhibitor concentration at 50% activity (IC50) was determined by performing the MTase assays in presence of serial dilution of the inhibitor in DMSO (final concentration in the assay 5%). All data points were measured in duplicate. The IC50 values were determined by curve fitting with Prism software using a logistic dose-response function: % activity = 100/(1+[I]/IC50)b, where b corresponds to the slope factor and [I] to inhibitor concentration. […]
(§10) Spectrometer using low-resolution ESI or high-resolution nano ESI techniques. The purity of the compounds was assessed by reverse -phase liquid chromatography coupled with a mass spectrometer (Agilent series 1100 LC/MSD) with a UV detector at λ = 254 nm and an electrospray ionization source (ESI). HPLC analysis was carried out using a Perkin -Elmer 1100 HPLC system coupled with UV/Vis set to 254 nm. Mass spectra were acquired in positive mode scanning over the mass range of 50–1500. The following ion source parameters were used: drying gas flow, […]; nebulize pressure, 40 psig; and drying gas temperature, 350 […]
(§11) performed using commercially available pre-coated plates and visualized with UV light at 254 nm; KMnO4 was used to reveal the products. Flash column chromatography was carried out using Sigma Aldrich silica gel particle size, 40-63 µm particle size 60 Å. All reactions were conducted under a nitrogen atmosphere in oven-dried glassware unless stated otherwise. All solvents and commercially available reagents were used as received.

[4] = molecular target: T2, hRNMT (human N7-MTase) (Homo sapiens, UniProt O43148); test: as above; type: biochemical; conditions: dose-response, 200 nM hRNMT, 10 µM AdoMet, 30 min at 30 °C
T2 construct: 6His (N); made in house; host or cells: E. coli Rosetta (DE3)
Description: as §2, §3, §4, §5, §6, §7, §8, §9, §10, §11

[5] = test system: ZIKV; test: CPE-reduction assay, inhibition of ZIKV replication; set-up: species or system Zika virus (ZIKV); conditions: cell-based CPE-reduction assay; for EC50: Zika virus
Description: as §1

[6] = test system: DENV; test: Cell-based antiviral activity against DENV; conditions: Dengue virus; cell-based assay
[7] = molecular target: DENV NS5-MTase (Dengue virus type 3, UniProt P27915); test: MTase inhibition assay ([3H]-SAM, GpppAC4 RNA substrate, DEAE filter binding); type: biochemical; conditions: initial screen, compounds at 50 μM, 30 min at 30 °C
Description: as §2, §3, §4, §5, §6, §7, §8, §9, §10, §11

[8] = in vitro; type: cell-based

T1 sequence (Q32ZE1 2517-2781): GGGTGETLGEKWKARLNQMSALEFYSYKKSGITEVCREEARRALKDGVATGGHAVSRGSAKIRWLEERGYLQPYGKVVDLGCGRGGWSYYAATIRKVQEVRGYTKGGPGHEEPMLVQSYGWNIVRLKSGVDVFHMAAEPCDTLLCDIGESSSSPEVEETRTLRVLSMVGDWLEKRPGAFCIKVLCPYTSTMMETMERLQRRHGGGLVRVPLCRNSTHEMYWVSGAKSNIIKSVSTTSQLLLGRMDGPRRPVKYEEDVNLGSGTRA
T2 sequence (O43148 whole entry): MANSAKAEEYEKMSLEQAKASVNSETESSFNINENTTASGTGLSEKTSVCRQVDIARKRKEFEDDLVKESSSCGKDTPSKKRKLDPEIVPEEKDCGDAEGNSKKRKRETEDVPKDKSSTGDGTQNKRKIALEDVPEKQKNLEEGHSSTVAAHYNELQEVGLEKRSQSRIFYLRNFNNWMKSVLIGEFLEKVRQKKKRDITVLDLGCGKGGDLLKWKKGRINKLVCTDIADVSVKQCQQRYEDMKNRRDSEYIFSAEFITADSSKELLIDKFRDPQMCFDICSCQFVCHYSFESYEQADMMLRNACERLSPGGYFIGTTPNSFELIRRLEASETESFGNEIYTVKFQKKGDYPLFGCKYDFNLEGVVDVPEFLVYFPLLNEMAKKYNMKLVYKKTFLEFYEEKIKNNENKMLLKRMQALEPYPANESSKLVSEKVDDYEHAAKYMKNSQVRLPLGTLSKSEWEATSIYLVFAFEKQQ
DENV NS5-MTase, sequence (P27915 2491-2753): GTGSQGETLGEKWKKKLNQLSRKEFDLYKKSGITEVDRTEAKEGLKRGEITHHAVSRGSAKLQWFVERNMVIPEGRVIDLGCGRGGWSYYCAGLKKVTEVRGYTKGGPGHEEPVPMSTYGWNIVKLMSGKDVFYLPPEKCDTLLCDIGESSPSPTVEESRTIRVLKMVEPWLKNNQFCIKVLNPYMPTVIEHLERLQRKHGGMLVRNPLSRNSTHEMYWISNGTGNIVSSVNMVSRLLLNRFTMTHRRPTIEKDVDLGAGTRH

| SMILES | CC50 [2] [µM] | IC50 [3] [µM] | inhibition at 50 µM [3] [%] | IC50 [4] [µM] | EC50 [5] [µM] | further results |
| --- | --- | --- | --- | --- | --- | --- |
| CCn1c2ccccc2c2cc(NC(=O)Nc3ccc([N+](=O)[O-])cc3C)ccc21 [Compound 6] | > 3.99 | 35 ± 5 | > 30 | 13.9 ± 0.7 | > 3.99 | CC50 [1]: 3.99 µM; ZIKV EC50 [5]: devoid of any antiviral activity |
| CCn1c2ccccc2c2cc(NC(=O)Nc3ccc([N+](=O)[O-])cc3Cl)ccc21 [Compound 9a] | 30.7 | 46 ± 1.1 | > 30 | ~122 | > 50 |  |
| CCn1c2ccccc2c2cc(NC(=O)Nc3ccc(C#N)cc3)ccc21 [Compound 9b] | > 10 | ~144 |  | ~253 | > 10 |  |
| CCn1c2ccccc2c2cc(NC(=O)Nc3ccc(OC)cc3OC)ccc21 [Compound 9c] | > 10 |  |  | 27.4 ± 1.9 | > 10 |  |
| CCn1c2ccccc2c2cc(NC(=O)Nc3ccc(I)cc3)ccc21 [Compound 9d] | > 50 | ~397 | > 30 | 5.3 ± 0.4 | > 50 |  |
| CCn1c2ccccc2c2cc(NC(=O)Nc3ccc(C(F)(F)F)cc3)ccc21 [Compound 9f] |  |  |  | 6.8 ± 0.5 |  |  |
| CCn1c2ccccc2c2cc(NC(=S)NCc3ccccc3)ccc21 [Compound 11b] | 19.6 | 70 ± 1.3 |  | ~112 | 4.78 |  |
| CCn1c2ccccc2c2cc(NC(=O)Nc3ccc(N)cc3C)ccc21 [Compound 15] | > 12.5 |  | 25 |  | 1.67 | EC50 [6]: 9.75 µM; inhibition of DENV NS5-MTase [7]: did not show any effect; CC50 [8]: 20 µM |
| CCn1c2ccccc2c2cc(NC(=O)C(N)CCCCN)ccc21 (stereo not shown) [Compound 16] |  |  |  |  |  | inhibition of ZIKV NS5-MTase [3]: barely inhibited |
| Cc1cc([N+](=O)[O-])ccc1NC(=O)Nc1ccc2c(c1)c1ccccc1n2CCc1ccccc1 [Compound 21b] | 20 | 114 ± 1.3 | > 30 |  | 12.5 | ZIKV CC50 [1]: showed toxicity |
| O=C(Nc1ccc(I)cc1)Nc1ccc2c(c1)c1ccccc1n2Cc1ccccc1 [Compound 21c] |  | 23 ± 1.2 | > 30 |  |  |  |
| O=C(Nc1ccc(I)cc1)Nc1ccc2c(c1)c1ccccc1n2CCc1ccccc1 [Compound 21d] | 100 |  |  |  | 25 | inhibition of ZIKV NS5-MTase [3]: poor inhibition |
| COc1ccc(NC(=O)Nc2ccc3c(c2)c2ccccc2n3Cc2ccccc2)c(OC)c1 [Compound 21e] |  | 48 ± 1.3 |  |  |  |  |
| COc1ccc(NC(=O)Nc2ccc3c(c2)c2ccccc2n3CCc2ccccc2)c(OC)c1 [Compound 21f] | 20 | 26 ± 1.2 |  |  | > 20 | ZIKV CC50 [1]: showed toxicity |
| Nc1ncnc2c1ncn2[C@@H]1O[C@H](C[C@@H](N)CC[C@H](N)C(=O)O)[C@@H](O)[C@H]1O [Sinefungin, reference compound] |  | 1.18 ± 0.05 |  |  |  |  |
